Drawing on publication PMC6137146, “A small molecule targeting myoferlin exerts promising anti-tumor effects on breast cancer” (Nature Communications, 2018), this text covers Kd for one molecule.

This assay has as its target T1, myoferlin (MYOF) (Homo sapiens, UniProt Q9NZM1).
T1 construct: C2D domain (F3 construct, amino acids 1116–1272, GST fusion in pGEX4T-1; ~44 kDa in SPR)
T1 sequence (Q9NZM1 1116-1272): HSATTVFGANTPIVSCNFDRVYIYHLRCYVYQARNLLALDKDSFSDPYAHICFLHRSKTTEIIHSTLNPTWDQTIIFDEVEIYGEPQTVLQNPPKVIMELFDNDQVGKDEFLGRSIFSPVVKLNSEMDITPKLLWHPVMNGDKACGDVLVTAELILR
The assay is described as follows: SPR (Biacore X-100, C2D immobilized on CM5 chip); supported by competition pull-down with WJ460-biotin. The class given is binding.

Consider `COc1ccccc1N1C(=O)CSC1c1cccc(C(=O)NCCCCc2ccccc2)c1` (stereo not shown) [WJ460], for which the Kd (as a rule, the equilibrium constant for the complex coming apart) was around 1330 nM.
